From US20230203025A1, “ENHANCERS OF PARTICULATE GUANYLYL CYCLASE RECEPTOR A” (Mayo Foundation for Medical Education and Research, priority 2020, published 2023)

Legend:
[1] = target: T1, particulate guanylyl cyclase B receptor (pGC-B) (Homo sapiens, UniProt P20594); assay: cGMP selectivity assay in HEK cells overexpressing pGC-B with CNP; type: cell-based; details: in the presence of CNP
T1 construct: expressed in transfected cells; host or cells: HEK
T1 sequence (P20594 23-1047): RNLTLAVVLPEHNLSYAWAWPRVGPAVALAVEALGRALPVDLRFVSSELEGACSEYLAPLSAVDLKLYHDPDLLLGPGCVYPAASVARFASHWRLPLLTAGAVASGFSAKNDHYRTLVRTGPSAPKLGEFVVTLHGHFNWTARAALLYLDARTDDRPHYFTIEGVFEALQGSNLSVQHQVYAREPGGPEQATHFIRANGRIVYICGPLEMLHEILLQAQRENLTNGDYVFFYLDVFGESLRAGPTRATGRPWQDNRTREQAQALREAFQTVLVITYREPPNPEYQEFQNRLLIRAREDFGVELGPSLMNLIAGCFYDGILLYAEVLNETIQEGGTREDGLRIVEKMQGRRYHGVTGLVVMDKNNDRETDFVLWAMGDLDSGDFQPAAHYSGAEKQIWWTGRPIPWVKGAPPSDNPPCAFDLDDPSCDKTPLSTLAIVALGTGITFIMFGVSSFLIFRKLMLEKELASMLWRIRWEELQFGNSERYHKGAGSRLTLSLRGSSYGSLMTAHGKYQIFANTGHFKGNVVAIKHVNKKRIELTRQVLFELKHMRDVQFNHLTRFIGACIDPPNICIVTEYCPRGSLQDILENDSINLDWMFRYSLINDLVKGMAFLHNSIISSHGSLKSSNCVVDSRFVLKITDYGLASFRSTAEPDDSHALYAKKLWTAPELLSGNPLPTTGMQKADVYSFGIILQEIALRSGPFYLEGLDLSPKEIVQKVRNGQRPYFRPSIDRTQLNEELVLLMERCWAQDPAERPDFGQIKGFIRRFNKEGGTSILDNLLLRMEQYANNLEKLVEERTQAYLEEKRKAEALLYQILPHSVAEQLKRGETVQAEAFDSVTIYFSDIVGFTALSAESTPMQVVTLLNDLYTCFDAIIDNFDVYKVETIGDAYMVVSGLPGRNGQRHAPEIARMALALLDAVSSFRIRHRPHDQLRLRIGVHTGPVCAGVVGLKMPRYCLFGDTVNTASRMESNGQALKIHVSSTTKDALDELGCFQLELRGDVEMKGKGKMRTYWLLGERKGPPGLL

[2] = plasma stability, human; type: in vitro ADME

cGMP activity in cells expressing pGC-B [1]: devoid of cGMP activity
Plasma Stability (% remaining at 1 h) [2]: 107.4%
SMILES: CN(C)CCN1CCCC(C(=O)Nc2nc3c(F)cc(F)cc3s2)C1 (centres unmarked) [Compound 19]
